Tests used:
SSc fibroblasts = assay: Hydroxyproline secretion by SSc fibroblasts treated with glyburide or parthenolide; settings: 100 μM glyburide or 10 μM parthenolide; media of 24 h and further 24 h
Procedure: SSc fibroblasts were cultured in 5 ml of media with 100 μM glyburide (G) or 10 μM parthenolide (P). After 24 h the media was collected and the fibroblasts given an additional 5 ml of media with 100 μM glyburide or 10 μM parthenolide and cultured for a further 24 h. Media from both time points was assayed for hydroxyproline. Three independent experiments were performed in and assayed in triplicate. Data is presented as means±SEM. G=glyburide, P=parthenolide.
SSc fibroblasts were treated for 24 h with 100 μM Glyburide or 10 μM Parthenolide. The media was replaced with fresh after 24 h with 100 μM Glyburide or 10 μM Parthenolide and cultured for an additional 24 h. The culture media was assayed for hydroxyproline.

interleukin-1β = settings: cited from earlier work
SSc dermal fibroblasts [1] = assay: IL-1β secretion by SSc dermal fibroblasts (ELISA of media); format: cell-based, human; settings: SSc dermal fibroblasts (n=4), 20 μM inhibitor, 48 h, untreated 41.1±5.6
Procedure: (§1) Normal human dermal fibroblasts (n=4) were purchased from the Coriell Institute (Camden, N.J.) and normal lung fibroblasts (n=3) were obtained from the University of Pittsburgh. Normal and SSc dermal fibroblasts (750,000 cells/dish) were cultured in DMEM (Mediatech Inc., Manassas Va.) supplemented with 10% FBS (Mediatech) and 1% penicillin/streptomycin (Mediatech). Protein lysates were collected for western blotting and media was collected for ELISA and hydroxyproline assays. SSc fibroblasts were treated with 20 μM caspase-1 inhibitor, Benzyloxycarbonyl-Tyr-Val-Ala-Asp(OMe)-fluoromethylketone (Z-YVAD(OMe)-FMK; Enzo Life Sciences, Plymouth Meeting Pa.) for 48 h. Fibroblasts from NLRP3−/−, and ASC−/− and C57BL/6 mice (Jackson Laboratories, Bar Harbor Me.) were established from skin and were treated with 1 μM bleomycin and 20 μM Z-YVAD(OMe)-FMK for 48 h.
(§2) Media from SSc and normal fibroblasts were assayed by ELISA for IL-1β (Thermo Scientific, Rockford Ill.) and IL-18 (MBL, Woburn Mass.) according to the manufacturer's recommendations. […] The sensitivity of the IL-1β ELISA was 2.6 pg/ml and the sensitivity of the IL-18 was 12 pg/ml.
(§3) 80% confluent fibroblasts were cultured in serum free Opti-MEM and transfected with siRNA targeting caspase-1 (Santa Cruz) for 48 h, with an additional transfection of the siRNA duplex after 24 h. […]

SSc lung fibroblasts [2] = assay: IL-1β secretion by SSc lung fibroblasts (ELISA of media); format: cell-based, human; settings: SSc lung fibroblasts (n=3), 20 μM inhibitor, 48 h; untreated 19.7±0.4
Procedure: as §1, §2

SSc dermal fibroblasts [3] = assay: IL-18 secretion by SSc dermal fibroblasts (ELISA of media); format: cell-based, human; settings: SSc dermal fibroblasts (n=4), 20 μM inhibitor, 48 h; untreated 23.9±1.0
Procedure: as §1, §2, §3

SSc lung fibroblasts [4] = assay: IL-18 secretion by SSc lung fibroblasts (ELISA of media); format: cell-based, human; settings: SSc lung fibroblasts (n=3), 20 μM inhibitor, 48 h; untreated 743.9±6.4
Procedure: as §1, §2

SSc dermal fibroblasts [5] = assay: Hydroxyproline (total collagen) secretion by SSc dermal fibroblasts; format: cell-based, human; settings: 20 μM inhibitor, 48 h, untreated 18.73±2.33
Procedure: as §1
(§4) Total collagen secreted into media was measured by hydroxyproline (Woessner, 1961, Arch Biochem Biophys 93:440-7). Absorbances were read in a spectrophotometer at 550 nm and the concentration of hydroxyproline was determined against a standard curve of hydroxyproline.
as §3

SSc lung fibroblasts [6] = assay: Hydroxyproline (total collagen) secretion by SSc lung fibroblasts; format: cell-based, human; settings: 20 μM inhibitor, 48 h, untreated 216.1±18.5
Procedure: as §1, §4

SSc dermal fibroblasts [7] = assay: Western blot of secreted COL1A1 and COL3A1, SSc dermal fibroblasts; format: cell-based, human; settings: 48 h
Procedure: as §1
(§5) 30 μl of media was size fractionated on a 5% SDS polyacrylamide gel (Invitrogen, Carlsbad Calif.) and the proteins transferred to a PVDF membrane (Invitrogen). Non-specific binding sites were blocked and then probed with rabbit-anti-human COL1A1, COL3A1, or α-SMA (Santa Cruz Biotechnologies, Santa Cruz Calif.) overnight at 4° C. The membrane was washed and incubated with goat anti-rabbit-HRP (1:5000) (Jackson Immunoresearch, West Grove Pa.). […] The intensity of the bands was measured by ImageJ (http://rsbweb dot nih dot gov/ij/).

SSc lung fibroblasts [8] = assay: Western blot of secreted COL1A1 and COL3A1, SSc lung fibroblasts; format: cell-based, human; settings: 48 h
Procedure: as §1, §5

[9] = system: SSc dermal myofibroblasts; assay: Immunofluorescence of α-SMA and f-actin in SSc dermal myofibroblasts; format: cell-based, human; settings: 48 h
Procedure: SSc dermal fibroblasts were cultured in chamber slides to 80% confluency and treated with Z-YVAD(OMe)-FMK for 48 h, air dried then fixed with 4% paraformaldehyde for 20 min. Slides were washed with 1×PBS and blocked with 5% goat serum. Primary antibody to α-SMA (1:100, Clone #1A4, Abcam, Cambridge Mass.) and applied to the cells for 40 min, then washed in PBS. Cy2-conjugated goat-anti-mouse (1:200, Jackson ImmunoResearch, West Grove Pa.) was applied to the cells for 40 min, and then washed. Rhodamine phalloidin (1:100, Cytoskeleton, Denver Colo.) was applied to the cells for 15 min, then the cells were washed with PBS, counterstained with DaPI (Invitrogen), visualized with a Nikon Eclipse 80i epi-fluorescent microscope, and photographed at 400× magnification. All images (red for f-actin, green for α-SMA, and triple for simultaneous detection of f-actin, α-SMA and nuclei) were captured at 6 sec, Gain=2, Gamma=0.5.

SSc dermal fibroblasts [10] = assay: Western blot of α-SMA in SSc dermal fibroblasts; format: cell-based, human; settings: 48 h
Procedure: 30 μl of media was size fractionated on a 5% SDS polyacrylamide gel (Invitrogen, Carlsbad Calif.) and the proteins transferred to a PVDF membrane (Invitrogen). Non-specific binding sites were blocked and then probed with rabbit-anti-human COL1A1, COL3A1, or α-SMA (Santa Cruz Biotechnologies, Santa Cruz Calif.) overnight at 4° C. The membrane was washed and incubated with goat anti-rabbit-HRP (1:5000) (Jackson Immunoresearch, West Grove Pa.). The HRP signal was developed with SuperSignal Chemiluminescent Substrate (Pierce). The intensity of the bands was measured by ImageJ (http://rsbweb dot nih dot gov/ij/).
80% confluent fibroblasts were cultured in serum free Opti-MEM and transfected with siRNA targeting caspase-1 (Santa Cruz) for 48 h, with an additional transfection of the siRNA duplex after 24 h. Cells were harvested for protein for Western blotting and the media was saved for hydroxyproline and IL-1β and IL-18 measurements and cells were lysed for α-SMA detection.

mouse dermal fibroblasts = assay: Hydroxyproline secretion by mouse dermal fibroblasts stimulated with bleomycin; format: cell-based; settings: for hydroxyproline secreted: 48 h
Procedure: as §1, §4

fibroblasts = format: cell-based
Procedure: as §1

[11] = system: other members of the interleukin-1 family, including interleukin-1 alpha; settings: cited from earlier work
[12] = system: mouse models of acute gout; settings: in vivo; cited from earlier work
[13] = system: C57Bl/6, NLRP3−/− and ASC−/− mice; assay: Murine bleomycin-induced model of fibrosis (skin thickness, lung pathology); format: in vivo, mouse
Procedure: All animals were housed in the University Laboratory Animal facility and fed ad libitum. Pathogen free C57Bl/6 mice (n=7) were purchased from Jackson Laboratories. […] Seven untreated C57BL/6 mice were assessed for skin thickness and lung pathology. Dermal fibrosis was induced by daily subcutaneous administration of 100 μl of a 1 mg/ml of bleomycin (BioMol, Plymouth Meeting Pa.) in the flank for 28 days. At the same time 100 μl sterile PBS was administered by subcutaneous injection in the contralateral flank of the same mouse according to the method of Yamamoto et al. (Yamamoto et al., 1999, J Invest Dermatol 112:456-62). Mice were euthanized and tissue from both injection sites was harvested, along with lung tissue. Tissues were fixed, embedded in paraffin, and sectioned onto positively charged slides, then stained with Masson's Trichrome and photographed. Collagen was measured in the skin from just below the epidermis to the fat layer. Two images were taken at 100× magnification. Six measurements were taken for each image using the Advanced SpotCam software and expressed as skin thickness in microns±SEM and fold change in skin thickness.

## COc1ccc(Cl)cc1C(=O)NCCc1ccc(S(=O)(=O)NC(=O)NC2CCCCC2)cc1 [Glyburide, 5-chloro-N-(4-[N-(cyclohexylcarbamoyl)sulfamoyl]phenethyl)-2-methoxybenzamide]
SSc fibroblasts
  hydroxyproline secretion by SSc fibroblasts: significantly reduce

## CSc1ccc(-c2nn(Cc3ccccc3)c(=O)cc2-c2ccc(Cl)cc2)cc1 [K-832, 2-benzyl-5-(4-chlorophenyl)-6-[4-(methylthio)phenyl]-2H-pyridazin-3-one]
interleukin-1β
  inhibitory activity against production of interleukin-1β: high inhibitory activity

## COC(=O)C[C@H](NC(=O)[C@H](C)NC(=O)[C@@H](NC(=O)[C@H](Cc1ccc(O)cc1)NC(=O)OCc1ccccc1)C(C)C)C(=O)CF [Z-YVAD(OMe)-FMK, Benzyloxycarbonyl-Tyr-Val-Ala-Asp(OMe)-fluoromethylketone]
SSc dermal fibroblasts [1]
  IL-1β secreted: 12.0 ± 1.6 pg/mL
SSc dermal fibroblasts [1]; listed as YVAD
  IL-1β secreted: 12.0 pg/mL
SSc lung fibroblasts [2]
  IL-1β secreted: 7.2 ± 0.2 pg/mL
SSc dermal fibroblasts [3]
  IL-18 secreted: 15.2 ± 1.5 pg/mL
SSc lung fibroblasts [4]
  IL-18 secreted: 311.6 ± 18.5 pg/mL
SSc dermal fibroblasts [5]
  hydroxyproline secreted: 5.19 ± 0.94 µg/mL
SSc lung fibroblasts [6]
  hydroxyproline secreted: 132.0 ± 22.8 µg/mL
SSc dermal fibroblasts [7]; untreated 11.4±1.3 AU
  Secreted COL1A1 protein (densitometry): 8.9±1.0 AU
SSc dermal fibroblasts [7]; untreated 14.7±3.1 AU
  COL3A1 protein (densitometry): 8.6±2.5 AU
SSc lung fibroblasts [8]; p=0.051
  COL1A1 secretion: trend for the reduction
SSc lung fibroblasts [8]; untreated 12.3±3.8 AU
  COL3A1 protein (densitometry): 5.5±1.2 AU
[9]; SSc dermal cells, untreated 37.8±3.09
  F-actin MFI: 39.6±2.9 MFI
[9]; SSc dermal myofibroblasts
  F-actin staining: unaffected
[9]; SSc dermal myofibroblasts, untreated 1.03±0.05
  Mean fluorescent intensity (MFI) of α-SMA after correction for f-actin MFI: 0.68±0.04
[9]; SSc dermal myofibroblasts, untreated 38.9±2.4
  Mean fluorescent intensity of α-SMA: 27.6±2.5
SSc dermal fibroblasts [10]; after normalization for β-actin
  Decrease of α-smooth muscle actin by Western: approximately 50%
SSc dermal fibroblasts [10]; untreated 1.07±0.15
  α-SMA protein by Western, normalized for β-actin loading: 0.54±0.14
Mouse dermal fibroblasts; C57BL/6 fibroblasts, 1 μM bleomycin plus 20 μM inhibitor
  hydroxyproline secreted: 5.9 ± 0.7 µg/mL
fibroblasts
  apoptosis: did not interfere with cell proliferation or induce apoptosis

## Canakinumab: a human monoclonal antibody targeted at interleukin-1 beta
[11]
  cross-reactivity with other members of the interleukin-1 family: no cross-reactivity

## XOMA-052: a potent anti-IL-1β humanized neutralizing antibody
[12]
  activity in mouse models of acute gout: active

## bleomycin
Mouse dermal fibroblasts; ASC−/− and NLRP3−/− fibroblasts, 1 μM bleomycin, p>0.43
  hydroxyproline secretion: not induced
Mouse dermal fibroblasts; C57BL/6 fibroblasts stimulated with 1 μM bleomycin, unstimulated 10.6±3.8
  hydroxyproline secreted: 42.8 ± 2.9 µg/mL
[13]; ASC−/− mice, bleomycin vs PBS injected skin
  fold induction of skin thickness: 1.06 fold
[13]; C57Bl/6 mice, bleomycin 100 μg daily s.c. 28 days, PBS injected skin 320.7±40.6
  average skin thickness: 504.4±66.7 microns
[13]; C57Bl/6 mice, bleomycin vs PBS injected skin
  fold increase in skin thickness: 1.54±0.11 fold
[13]; NLRP3−/− mice, bleomycin vs PBS injected skin
  fold induction of skin thickness: 1.10 fold
[13]; wild-type C57Bl/6 mice, bleomycin s.c. 28 days
  lung pathology: developed extensive pulmonary fibrosis

Reference: US20140314746A1, “METHODS FOR TREATING OR PREVENTING FIBROSIS IN SUBJECTS AFFLICTED WITH SCLERODERMA” (Philadelphia Health and Education Corporation, d/b/a Drexel …, priority 2013, published 2014)
